Data published in patent US6903132B2, “Non-peptide GnRH agents, pharmaceutical compositions and methods for their use” (Agouron Pharmaceuticals, Inc., priority 2002, dated 2005).

What was measured:
[1] = target: T1, mouse GnRH receptors (Mus musculus, UniProt Q01776); assay: Radioligand binding assay: inhibition of binding of 125I-GnRH-A to GnRH receptors (membranes); conditions: Mouse GnRH receptor; competition with 125I-GnRH-A; Ki calculated from IC50 (Cheng et al.)
T1 construct: expressed in transfected cells; host or cells: HEK 293
T1 sequence (Q01776 1-327): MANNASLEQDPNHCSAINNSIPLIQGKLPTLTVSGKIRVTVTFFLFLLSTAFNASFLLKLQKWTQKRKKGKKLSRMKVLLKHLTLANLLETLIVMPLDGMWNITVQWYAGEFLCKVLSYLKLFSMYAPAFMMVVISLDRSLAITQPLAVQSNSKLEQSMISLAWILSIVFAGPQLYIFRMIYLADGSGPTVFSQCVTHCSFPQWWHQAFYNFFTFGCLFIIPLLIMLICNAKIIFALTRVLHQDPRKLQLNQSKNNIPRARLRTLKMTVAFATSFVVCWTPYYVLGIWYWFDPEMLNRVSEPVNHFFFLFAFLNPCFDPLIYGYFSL
Method in brief: (§1)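 Membranes from HEK 293 expressing mouse or human receptor, or rat pituitaries, incubated 1 h at RT with ~0.04–0.06 nM ¹²⁵I-[des-Gly¹⁰,D-Ala⁶]GnRH ethylamide and competitor (0.1–10,000 nM) in HEPES pH 7.4 with MgCl2, EDTA, BSA. Filtration onto PEI-soaked GF/C filters, scintillation counting; Ki from IC50 by Cheng–Prusoff.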

[2] = target: T2, human GnRH receptors (Homo sapiens, UniProt P30968); assay: as above; conditions: Human GnRH receptor; competition with 125I-GnRH-A; Ki calculated from IC50 (Cheng et al.)
T2 construct: expressed in transfected cells; host or cells: HEK 293
T2 sequence (P30968 1-328): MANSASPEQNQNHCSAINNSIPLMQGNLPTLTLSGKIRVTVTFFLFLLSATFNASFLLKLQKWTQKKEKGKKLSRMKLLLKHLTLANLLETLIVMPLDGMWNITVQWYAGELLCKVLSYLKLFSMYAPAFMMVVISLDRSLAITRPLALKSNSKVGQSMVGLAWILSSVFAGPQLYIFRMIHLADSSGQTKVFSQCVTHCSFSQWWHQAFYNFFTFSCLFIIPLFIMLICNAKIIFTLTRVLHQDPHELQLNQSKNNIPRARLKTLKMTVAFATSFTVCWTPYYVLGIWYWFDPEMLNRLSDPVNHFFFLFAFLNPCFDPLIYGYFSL
Method in brief: as §1

[3] = Pharmacokinetics in male rats; format: in vivo, rat; conditions: for M T1/ hr: male rats (MR); for M T1/ hr / Tmax: dosed orally at 50 mg/kg; for M Fp. / Tmax: male rats; for M Fp.: oral bioavailability, AUCp.o./AUCi.v.; for Tmax: rat, plasma, po, read-out: MR Tmax hr
Method: Rats (male or female, 200-225 g) are prepared with indwelling jugular vein cannula as described by Harms et al., Applied Physiol. 36:391-398 (1974), and allowed to recover overnight with free access to the standard vivarium chow and water. The compounds are administered to female rats at 5 mg/kg i.v. and 10 mg/kg p.o. as solutions in 10% DMSO+10% cremophor+80% saline or 10% cremophor+90% saline. The male rats are dosed orally at 50 mg/kg in the vehicles specified in Table 3. The blood samples are withdrawn at specific times, plasma is immediately separated and compound extracted with ethyl acetate. The samples are analyzed by LC-MS using 30-90% gradient of ACN in 50 mM ammonium acetate.
The pharmacokinetic parameters are calculated using WinNonlin software (Scientific Consulting Inc.). The bioavailability is calculated as AUCp.o./AUCi.v., where AUCp.o. and AUCi.v. are areas under the plasma concentration-time curve after oral and i.v. administration, respectively.

Row | Ki [1] [nM] | Ki [2] [nM] | M T1/ hr [3] [h] | M Fp. [3] [%] | Tmax [3] [h] | SMILES
1 | 7 | 3 | 1.3 | 1 | 1 | Cc1cc2c(cc1Cc1ccc(C(=O)NNc3cc(C)c4c(C)nn(C)c4n3)o1)C(C)(C)CCC2(C)C [Example C1, 5-[(3,5,5,8,8-Pentamethyl-5,6,7,8-tetrahydro-2-naphthalenyl)methyl]-N′-(1,3,4-trimethyl-1H-pyrazolo[3,4-b]pyridin-6yl)-2-furohydrazide]
2 | 23 | 9.5 | 1.2 | 4 | 1 | COc1cc2c(cc1Cc1ccc(C(=O)NNc3cc(C)c4c(C)nn(C)c4n3)o1)C(C)(C)CCC2(C)C [Example C2, 5-[(3-Methoxy-5,5,8,8-tetramethyl-5,6,7,8-tetrahydro-2-naphthalenyl)methyl]-N′-(1,3,4-trimethyl-1H-pyrazolo[3,4-b]pyridin-6-yl)-2-furohydrazide]
